In ChEMBL document CHEMBL1124830, “Synthesis, brain uptake, and pharmacological properties of a glyceryl lipid containing GABA and the GABA-T inhibitor gamma-vinyl-GABA” (J Med Chem, 1990):
pIC50: −log10 of the molar value.

Experiments:
[1] = Brain penetration index calculated as ([Brain]/[Liver])x100 @ 5 min after sc administration in mice at 33 mg/kg; type: functional; details: route subcutaneous
Mus musculus [2] = assay: Concentration of brain in mice after sc administration at 33 mg/kg; type: functional, organism-based; parameters: dose 33 mg/kg
Rattus norvegicus = species on record: Rattus norvegicus; assay: Inhibitory concentration that suppress the CA1 population spike in rat hippocampus slices; type: functional, organism-based
Mus musculus [3] = species on record: Mus musculus; assay: Dose required to produce a 50% reduction in general motor activity after injection in mice; type: functional
Mus musculus [4] = assay: Concentration of liver in mice after sc administration at 33 mg/kg; type: functional, organism-based; parameters: dose 33 mg/kg
[5] = Partition coefficient of the compound; type: ADME; details: octanol/water
Mus musculus [6] = species on record: Mus musculus; details: 3-39 mg/kg
Mus musculus [7] = species on record: Mus musculus; details: Liver
[8] = Brain penetration index calculated as ([Brain]/[Liver])x100 @ 5 min after sc administration in mice at 3-39 mg/kg; type: functional

pIC50 (Rattus norvegicus) | Partition coefficient [5] | Compound | BPI [1] | Concentration (nM (g of tissue)-1) (Mus musculus [2]) | Dose (Mus musculus [3]) [µM/kg] | Concentration (nM (g of tissue)-1) (Mus musculus [4]) | Concentration (nM (g of tissue)-1) (Mus musculus [6]) | Concentration (nM (g of tissue)-1) (Mus musculus [7]) | BPI [8]
3.10 | 1.76 | C=CC(N)CCC(=O)OCC(COC(=O)CCCCCCC/C=C\C/C=C\C/C=C\CC)OC(=O)CCCN (stereo unspecified) | 97 | 8.34 | 25 | 8.94 |  |  | 
 | 0.004 | NCCCC(=O)O [GAMMA-AMINOBUTYRIC ACID] |  |  |  |  | 0.04 | 4.17 | 1
 |  | C=CC(N)CCC(=O)O (stereo unspecified) [VIGABATRIN] |  |  | 9000 |  |  |  | 
